Test results reported in patent US9493438B2, “4,4-difluoro-piperidine-compounds” (ROTTAPHARM BIOTECH S.R.L., priority 2012, dated 2016).

Key:
human OX2 receptors = target: T1, human OX2 receptors (Homo sapiens, UniProt O43614); experiment: antagonistic activity against human OX2 receptor, [Ca2+]i fluorimetry in transfected HEK-293 cells; type: cell-based; details: read-out: PKb OX2 (converted)
T1 construct: expressed in transfected cells; host or cells: HEK-293 cells
T1 sequence (O43614 1-444): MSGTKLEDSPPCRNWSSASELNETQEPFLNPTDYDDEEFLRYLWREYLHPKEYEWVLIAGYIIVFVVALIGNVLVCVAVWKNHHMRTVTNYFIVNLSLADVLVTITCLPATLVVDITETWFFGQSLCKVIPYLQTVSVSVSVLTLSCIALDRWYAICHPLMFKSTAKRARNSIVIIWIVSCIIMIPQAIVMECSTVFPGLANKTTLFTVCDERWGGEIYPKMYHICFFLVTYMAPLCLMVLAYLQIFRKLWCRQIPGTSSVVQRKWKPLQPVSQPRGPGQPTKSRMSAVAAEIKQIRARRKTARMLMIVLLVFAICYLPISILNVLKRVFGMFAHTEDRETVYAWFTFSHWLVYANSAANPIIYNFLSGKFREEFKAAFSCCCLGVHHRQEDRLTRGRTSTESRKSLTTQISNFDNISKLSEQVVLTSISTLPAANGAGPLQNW
Method: (§1) Thus the plate was loaded with the calcium dye (Fluo-4NW/probenecid in HBSS, Hepes 20 mM, pH 7.4; Invitrogen) at 37° C. for 60 min. Afterward the temperature was equilibrated at 22° C. for 15 min and the [Ca2+]i measured directly on the plate by using a fluorescent plate reader (CeliLux Perkin Elmer).
(§2) Invention compounds were dissolved in DMSO, diluted in HBSS (DMSO, 0.3% final) and added to the wells. After 5 min CHO cells were activated with orexin-A, 3 nM while HEK-293 cells were activated with orexin-B, 10 nM. […] The antagonistic activity has been expressed as pKb (co-logarithm of the apparent dissociation constant calculated by using the modified Cheng Prusoff equation). The results are expressed as percent of control specific […] response ((measured specific response/control specific agonist response)×100) obtained in the presence of the test compounds.
(§3) The IC50 values (concentration causing a half-maximal inhibition of the control specific agonist response) were determinated by non-linear regression analysis of the concentration curves generated with mean replicate values using hill equation curve fitting. The IC50 values are obtained by the arithmetical mean of at least two experiments.

human OX1 receptors = target: T2, human OX1 receptors (Homo sapiens, UniProt O43613); experiment: antagonistic activity against human OX1 receptor, [Ca2+]i fluorimetry in transfected CHO cells; type: cell-based; details: CHO cells transfected with human recombinant OX1; activated with orexin-A 3 nM; pKb = co-logarithm of apparent dissociation constant (modified Cheng Prusoff)
T2 construct: expressed in transfected cells; host or cells: CHO cells
T2 sequence (O43613 1-425): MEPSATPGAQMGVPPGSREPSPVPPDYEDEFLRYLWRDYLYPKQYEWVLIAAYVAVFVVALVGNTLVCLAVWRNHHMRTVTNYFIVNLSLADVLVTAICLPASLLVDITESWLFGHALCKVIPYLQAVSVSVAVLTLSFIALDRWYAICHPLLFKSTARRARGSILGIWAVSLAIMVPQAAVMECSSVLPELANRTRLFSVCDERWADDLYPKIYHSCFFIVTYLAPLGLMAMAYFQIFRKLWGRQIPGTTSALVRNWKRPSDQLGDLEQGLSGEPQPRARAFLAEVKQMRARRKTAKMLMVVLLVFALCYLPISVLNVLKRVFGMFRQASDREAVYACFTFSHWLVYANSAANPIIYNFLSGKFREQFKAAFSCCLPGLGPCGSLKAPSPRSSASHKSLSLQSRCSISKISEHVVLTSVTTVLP
Method: as §1, §2, §3

| SMILES | Kb (human OX2 receptors) [nM] | Kb (human OX1 receptors) [nM] |
| --- | --- | --- |
| O=C(c1cccc2cccnc12)N1CCC(F)(F)CC1CNc1ccc(Cl)cn1 (single isomer, unassigned; isomer a) [Compound 26, (2-(((5-chloropyridin-2-yl)amino)methyl)-4,4-difluoropiperidin-1-yl)(quinolin-8-yl)methanone (isomer A)] | 10000 | 1.58 |
| O=C(c1nc(C(F)(F)F)ccc1-c1ncccn1)N1CCC(F)(F)CC1CNc1ccc(C(F)(F)F)cn1 (racemic) [Compound 39, (RS)(4,4-difluoro-2-(((5-(trifluoromethyl)pyridin-2-yl)amino)methyl)piperidin-1-yl)(3-(pyrimidin-2-yl)-6-(trifluoromethyl)pyridin-2-yl)methanone] | 10000 | 31.6 |
| COc1ccc(OC)c(C(=O)N2CCC(F)(F)CC2CNc2ccc(Cl)cn2)c1 (racemic) [Compound 11, (RS)(2-(((5-chloropyridin-2-yl)amino)methyl)-4,4-difluoropiperidin-1-yl)(2,5-dimethoxyphenyl)methanone] | 10000 | 7.94 |
| Cc1ccc(OCC2CC2)c(C(=O)N2CCC(F)(F)CC2CNc2ccc(C(F)(F)F)cn2)n1 (racemic) [Compound 45, (RS)(3-(cyclopropylmethoxy)-6-methylpyridin-2-yl)(4,4-difluoro-2-(((5-(trifluoromethyl)pyridin-2-yl)amino)methyl)piperidin-1-yl)methanone] | 10000 | 3.98 |
| O=C(c1cccc2cccnc12)N1CCC(F)(F)CC1CNc1ccc(Cl)cn1 (racemic) [Compound 25, (RS)(2-(((5-chloropyridin-2-yl)amino)methyl)-4,4-difluoropiperidin-1-yl)(quinolin-8-yl)methanone] | 10000 | 0.794 |
| Cc1ccc(-c2ncccn2)c(C(=O)N2CCC(F)(F)CC2CNc2ccc(Cl)cn2)n1 (single isomer, unassigned; isomer a) [Compound 16, (2-(((5-chloropyridin-2-yl)amino)methyl)-4,4-difluoropiperidin-1-yl)(6-methyl-3-(pyrimidin-2-yl)pyridin-2-yl)methanone (isomer A)] | 10000 | 0.631 |
| O=C(c1nccc2ccccc12)N1CCC(F)(F)CC1CNc1ccc(Cl)cn1 (single isomer, unassigned; isomer b) [Compound 24, (2-(((5-chloropyridin-2-yl)amino)methyl)-4,4-difluoropiperidin-1-yl)(isoquinolin-1-yl)methanone (isomer B)] | 10000 | 1 |
| Cc1ccc(-n2nccn2)c(C(=O)N2CCC(F)(F)CC2CNc2nc(C)cc(C)n2)c1 (single isomer, unassigned; isomer a) [Compound 4, (2-(((4,6-dimethylpyrimidin-2-yl)amino)methyl)-4,4-difluoropiperidin-1-yl)(5-methyl-2-(2H-1,2,3-triazol-2-yl)phenyl)methanone (isomer A)] | 200 | 2.51 |
| Cc1ccc(-c2ncccn2)c(C(=O)N2CCC(F)(F)CC2CNc2ccc(Cl)cn2)n1 (racemic) [Compound 14, (RS)(2-(((5-chloropyridin-2-yl)amino)methyl)-4,4-difluoropiperidin-1-yl)(6-methyl-3-(pyrimidin-2-yl)pyridin-2-yl)methanone] | – | 2.51 |
| O=C(c1ncccc1-c1ncccn1)N1CCC(F)(F)CC1CNc1ccc(C(F)(F)F)cn1 (racemic) [Compound 54, (RS) (4,4-difluoro-2-(((5-(trifluoromethyl)pyridin-2-yl)amino)methyl)piperidin-1-yl)(3-(pyrimidin-2-yl)pyridin-2-yl)methanone] | – | 3.16 |

Results, then the compound that gave them:

| Kb (human OX2 receptors) [nM] | Kb (human OX1 receptors) [nM] | SMILES |
| --- | --- | --- |
| 10000 | 6.31 | O=C(c1ncccc1-c1ccccc1)N1CCC(F)(F)CC1CNc1ccc(C(F)(F)F)cn1 (racemic) [Compound 51, (RS)(4,4-difluoro-2-((5-(trifluoromethylpyridin-2-yl)amino)methyl)piperidin-1-yl)(3-phenylpyridin-2-yl)methanone] |
| 126 | 3.16 | Cc1ccc(-c2ccccc2)c(C(=O)N2CCC(F)(F)CC2CNc2ccc(C(F)(F)F)cn2)n1 (single isomer, unassigned; isomer b) [Compound 38, (4,4-difluoro-2-(((5-(trifluoromethyl)pyridin-2-yl)amino)methyl)piperidin-1-yl)(6-methyl-3-phenylpyridin-2-yl)methanone (isomer B)] |
| 316 | 0.794 | Cc1ccc(-c2ncccn2)c(C(=O)N2CCC(F)(F)CC2CNc2ccc(C(F)(F)F)cn2)n1 (single isomer, unassigned; isomer a) [Compound 20, (4,4-difluoro-2-(((5-(trifluoromethyl)pyridin-2-yl)amino)methyl)piperidin-1-yl)(6-methyl-3-(pyrimidin-2-yl)pyridin-2-yl)methanone (isomer A)] |
| 10000 | 3.16 | Cc1ccc(-c2ccccc2)c(C(=O)N2CCC(F)(F)CC2CNc2cnc(C(F)(F)F)cn2)n1 (racemic) [Compound 43] |
| 10000 | 15.8 | Cc1ccc(-c2ccccn2)c(C(=O)N2CCC(F)(F)CC2CNc2ccc(C(F)(F)F)cn2)n1 (racemic) [Compound 53, (RS)(4,4-difluoro-2-(((5-(trifluoromethyl)pyridin-2-yl)amino)methyl)piperidin-1-yl)(6′-methyl-[2,3′-bipyridin]-2′-yl)methanone] |
| 10000 | 12.6 | Cc1ccc(OCc2ccccc2)c(C(=O)N2CCC(F)(F)CC2CNc2ccc(C(F)(F)F)cn2)n1 (racemic) [Compound 47, (RS)(3-(benzyloxy)-6-methylpyridin-2-yl)(4,4-difluoro-2-(((5-(trifluoromethyl)pyridin-2-yl)amino)methyl)piperidin-1-yl)methanone] |
| 200 | 3.98 | Cc1ccc(-c2ccccc2)c(C(=O)N2CCC(F)(F)CC2CNc2ncc(C(F)(F)F)cc2F)n1 (racemic) [Compound 44, (RS)(4,4-difluoro-2-(((3-fluoro-5-(trifluoromethyl)pyridin-2-yl)amino)methyl)piperidin-1-yl)(6-methyl-3-phenylpyridin-2-yl)methanone] |
| 10000 | 1.58 | O=C(c1nccc2ccccc12)N1CCC(F)(F)CC1CNc1ccc(C(F)(F)F)cn1 (single isomer, unassigned; isomer a) [Compound 41, (4,4-difluoro-2-(((5-(trifluoromethyl)pyridin-2-yl)amino)methyl)piperidin-1-yl)(isoquinolin-1-yl)methanone (isomer A)] |
| 10000 | 15.8 | Cc1ccc(OCC2CC2)c(C(=O)N2CCC(F)(F)C[C@H]2CNc2ccc(C(F)(F)F)cn2)n1 [Compound 46, (S)(3-(cyclopropylmethoxy)-6-methylpyridin-2-yl)(4,4-difluoro-2-(((5-(trifluoromethyl)pyridin-2-yl)amino)methyl)piperidin-1-yl)methanone] |
| 10000 | 3.16 | Cc1ccc(-c2ccccc2)c(C(=O)N2CCC(F)(F)CC2CNc2ccc(C(F)(F)F)cn2)n1 (racemic) [Compound 36, (RS)(4,4-difluoro-2-(((5-(trifluoromethyl)pyridin-2-yl)amino)methyl)piperidin-1-yl)(6-methyl-3-phenylpyridin-2-yl)methanone] |
